US20240025862A1, “SUBSTITUTED N-PHENYLURACILS AND SALTS THEREOF, AND USE THEREOF AS HERBICIDAL ACTIVE SUBSTANCES” (Bayer Aktiengesellschaft, priority 2020, published 2024)

Assays:
Format in all cases: in vivo
Oryza sativa (ORYSA) = assay: Post-emergence crop plant compatibility, greenhouse pot test (also comparative test C); settings: for Post-emergence action against ORYSA (crop plant compatibility): vs untreated controls
Method: (§1) Seeds of monocotyledonous and dicotyledonous weeds and crop plants were placed in sandy loam in plastic or wood-fiber pots, covered with soil and cultivated in a greenhouse under controlled growth conditions. 2 to 3 weeks after sowing, the test plants were treated at the one-leaf stage. The compounds of the invention, formulated in the form of wettable powders (WP) or as emulsion concentrates (EC), were then sprayed onto the green parts of the plants as aqueous suspension or emulsion with addition of 0.5% additive at a water application rate of 600 l/ha (converted). After the test plants had been kept in the greenhouse under optimum growth conditions for about 3 weeks, the activity of the preparations was rated visually in comparison to untreated controls. For example, 100% activity=the plants have died, 0% activity=like control plants.
(§2) The observed effects on selected crop plants are reported here in comparison to the untreated controls (values in %). The appendices “a”, “b” and “c” give differentiation by different dosage with otherwise the same crop plants tested.
(§3) C. Comparative Herbicidal Action and Crop Plant Compatibility of Two Inventive Compounds (I.7-1 and I.7-115) with a Compound of Similar Structure Known from the Literature (WO2002/098227, a-17 and EP1106607, 3-14) in Post-Emergence Treatment.

[1] = system: Triticum aestivum (TRZAS); assay: Post-emergence crop plant compatibility, greenhouse pot test; settings: vs untreated controls
Method: as §1, §2

[2] = system: Amaranthus retroflexus (AMARE); assay: Post-emergence herbicidal action, greenhouse pot test; settings: rated visually after about 3 weeks vs untreated controls, 100% = plants have died
Method: as §1
(§4) Tables A1 to A14 below show the effects of selected compounds of the general formula (I) according to Tables I.1 to I.33 on various harmful plants and at an application rate corresponding to 20 g/ha and less, which were obtained by the experimental method specified above. The appendices “a”, “b” and “c” give differentiation by different dosage with otherwise the same harmful plants tested.

[3] = system: Abutilon theophrasti (ABUTH); assay: as above; settings: rated visually after about 3 weeks vs untreated controls, 100% = plants have died
Method: as §1, §4

[4] = system: Pharbitis purpurea (PHBPU); assay: as above
Method: as §1, §4

[5] = system: Polygonum convolvulus (POLCO); assay: as above
Method: as §1, §4

Viola tricolor (VIOTR) = assay: as above
Method: as §1, §4

Veronica persica (VERPE) = assay: as above
Method: as §1, §4

Setaria viridis (SETVI) = assay: Post-emergence herbicidal action, greenhouse pot test (also comparative test C); settings: for Post-emergence action against SETVI: 20 g/ha
Method: as §1, §4, §3
(§5) Tables C1-C4 below show the effects of two inventive compounds (I.7-1 and I.7-115) together with a compound of similar structure known from the literature (a-17 in WO2002/098227, and 3-14 in EP1106607) in different crop plants at an application rate corresponding to 5 g/ha or less, which have been obtained by the aforementioned experimental procedure.

[6] = system: Matricaria inodora (MATIN); assay: as above
Method: as §1, §4, §3, §5

[7] = system: Echinochloa crus-galli (ECHCG); assay: as above; settings: for Post-emergence action at 1.25 g/ha against ECHCG in %: rated visually after about 3 weeks vs untreated controls, 100% = plants have died
Method: as §1, §4, §3, §5

[8] = system: Alopecurus myosuroides (ALOMY); assay: as above; settings: for ALOMY (efficacy in %): comparative test C, application rate 5 g/ha
Method: as §1, §4, §3, §5

[9] = rated visually after about 3 weeks vs untreated controls, 100% = plants have died
[10] = comparative test C, application rate 1.25 g/ha

Post-emergence action against TRZAS (crop plant compatibility) ([1]; 1.25 g/ha)	SMILES	Post-emergence action at 1.25 g/ha against AMARE in % [2]	Post-emergence action at 5 g/ha against AMARE in % [2]	Post-emergence action at 20 g/ha against AMARE in % [2]	Post-emergence action at 5 g/ha against ABUTH in % [3]	Post-emergence action at 20 g/ha against ABUTH in % [3]	Post-emergence action against PHBPU in % ([4]; dosage 1.25 g/ha)	Post-emergence action against PHBPU in % ([4]; dosage 5 g/ha)	Post-emergence action against PHBPU in % ([4]; dosage 20 g/ha)	Post-emergence action against POLCO in % ([5]; dosage 20 g/ha)	Post-emergence action against VIOTR (Viola tricolor (VIOTR); 5 g/ha)	Post-emergence action against VIOTR (Viola tricolor (VIOTR); 20 g/ha)	Post-emergence action against VERPE (Veronica persica (VERPE); 1.25 g/ha)	Post-emergence action against VERPE (Veronica persica (VERPE); 5 g/ha)	Post-emergence action against VERPE (Veronica persica (VERPE); 20 g/ha)	Post-emergence action against SETVI (Setaria viridis (SETVI))	Post-emergence action against SETVI in % (Setaria viridis (SETVI); dosage 1.25 g/ha)	Post-emergence action against SETVI in % (Setaria viridis (SETVI); dosage 5 g/ha)	Post-emergence action against MATIN in % ([6]; dosage 5 g/ha)	Post-emergence action against MATIN in % ([6]; dosage 20 g/ha)	also measured
10%	COCCOCCOC(=O)COc1cccc(F)c1Oc1cc(-n2c(=O)cc(C(F)(F)F)n(C)c2=O)c(F)cc1Cl [I.19-23]	100%	100%	100%	100%	100%	100%	100%	100%	100%	100%	100%	100%	100%	100%	100%	100%	100%	100%	100%	Post-emergence action against ORYSA (crop plant compatibility) (Oryza sativa (ORYSA); 1.25 g/ha): 10%; Post-emergence action against POLCO in % ([5]; dosage 1.25 g/ha): 100%; Post-emergence action against POLCO in % ([5]; dosage 5 g/ha): 100%; Post-emergence action against ECHCG in % ([7]; dosage 5 g/ha): 100%; Post-emergence action against ECHCG in % ([7]; dosage 20 g/ha): 100%; Post-emergence action at 5 g/ha against ALOMY in % ([8]; 5 g/ha, rated visually after about 3 weeks vs untreated controls, 100% = plants have died): 80%; Post-emergence action at 20 g/ha against ALOMY in % [8, 9]: 100%
	Cn1c(C(F)(F)F)cc(=O)n(-c2cc(Oc3ccccc3OCC(=O)OCC3CCCO3)c(Cl)cc2F)c1=O (racemic) [Example 1.7-71]																		100%		
20%	Cn1c(C(F)(F)F)cc(=O)n(-c2cc(Oc3c(F)cccc3OCC(=O)OCC#N)c(Cl)cc2F)c1=O [I.19-176]	100%	100%	100%	100%	100%	100%	100%	100%	100%	100%	100%	100%	100%	100%	100%	90%	100%	100%	100%	Post-emergence action against ORYSA (crop plant compatibility) (Oryza sativa (ORYSA); 1.25 g/ha): 0%; Post-emergence action at 1.25 g/ha against ABUTH in % [3]: 100%; Post-emergence action against POLCO in % ([5]; dosage 1.25 g/ha): 100%; Post-emergence action against POLCO in % ([5]; dosage 5 g/ha): 100%; Post-emergence action against VIOTR (Viola tricolor (VIOTR); 1.25 g/ha): 80%; Post-emergence action against ECHCG in % ([7]; dosage 5 g/ha): 100%; Post-emergence action against ECHCG in % ([7]; dosage 20 g/ha): 100%; Post-emergence action at 20 g/ha against ALOMY in % [8, 9]: 80%
	CCCCOC(=O)COc1ccccc1Oc1cc(-n2c(=O)cc(C(F)(F)F)n(C)c2=O)c(F)cc1Cl [a-17, reference compound]																				ORYSA (efficacy in %) (Oryza sativa (ORYSA); comparative test C, application rate 1.25 g/ha, crop plant compatibility): 20%; SETVI (efficacy in %) (Setaria viridis (SETVI); [10]): 80%; MATIN (efficacy in %) [6, 10]: 30%; ECHCG (efficacy in %) [7, 10]: 60%
20%	COCCOC(=O)COc1cccc(F)c1Oc1cc(-n2c(=O)cc(C(F)(F)F)n(C)c2=O)c(F)cc1Cl [I.19-1]	100%	100%	100%	100%	100%	100%	100%	100%	100%	100%	100%	100%	100%	100%	100%	100%	100%	90%	100%	Post-emergence action at 1.25 g/ha against ABUTH in % [3]: 100%; Post-emergence action against POLCO in % ([5]; dosage 5 g/ha): 100%; Post-emergence action against VIOTR (Viola tricolor (VIOTR); 1.25 g/ha): 100%; Post-emergence action at 1.25 g/ha against ECHCG in % [7]: 100%; Post-emergence action against ECHCG in % ([7]; dosage 5 g/ha): 100%; Post-emergence action against ECHCG in % ([7]; dosage 20 g/ha): 100%; Post-emergence action at 20 g/ha against ALOMY in % [8, 9]: 100%
20%	Cn1c(C(F)(F)F)cc(=O)n(-c2cc(Oc3cc(F)ccc3OCC(=O)OCc3ccccn3)c(Cl)cc2F)c1=O [I.23-276]	90%	100%	100%	100%	100%	90%	100%	100%	100%	100%	100%	80%	100%	100%	100%	100%	100%		90%	Post-emergence action against ORYSA (crop plant compatibility) (Oryza sativa (ORYSA); 1.25 g/ha): 0%; Post-emergence action against ORYSA (crop plant compatibility) (Oryza sativa (ORYSA); 5 g/ha): 10%; Post-emergence action against ORYSA in % (Oryza sativa (ORYSA); 20 g/ha, crop plant compatibility): 10%; Post-emergence action against TRZAS (crop plant compatibility) ([1]; 5 g/ha): 20%; Post-emergence action at 1.25 g/ha against ABUTH in % [3]: 90%; Post-emergence action against VIOTR (Viola tricolor (VIOTR); 1.25 g/ha): 80%; Post-emergence action at 1.25 g/ha against ECHCG in % [7]: 100%; Post-emergence action against ECHCG in % ([7]; dosage 5 g/ha): 100%; Post-emergence action against ECHCG in % ([7]; dosage 20 g/ha): 100%; Post-emergence action at 20 g/ha against ALOMY in % [8, 9]: 100%
	COCCOC(=O)COc1ccccc1Oc1cc(-n2c(=O)cc(C(F)(F)F)n(C)c2=O)c(F)cc1Cl [drawing 110]																				ALOMY (efficacy in %) [8]: 80%
	Cn1c(C(F)(F)F)cc(=O)n(-c2cc(Oc3ccccc3OCC(=O)OC3COC3)c(Cl)cc2F)c1=O [drawing 111]																				ALOMY (efficacy in %) [8]: 100%
	CCCCOC(=O)COc1ccccc1Oc1cc(-n2c(=O)cc(C(F)(F)F)n(C)c2=O)c(F)cc1Cl [drawing 112]																				ALOMY (efficacy in %) [8]: 30%
